Test systems include OVCAR-8 ovarian; DU-145 prostate; HS 578T breast; RPMI-8226 leukemia; OVCAR-5 ovarian; ACHN renal; K-562 leukemia; IGROV1 ovarian; SF-295 CNS; MALME-3M melanoma; MOLT-4 leukemia; UO-31 renal; MCF7 breast; A498 renal; KM12 colon; CCRF-CEM leukemia; NCI-H522 lung; HCT-116 colon; HL-60(TB) leukemia.
Assay in all cases: NCI tumour cell line growth inhibition, 48 h

Structures are written as SMILES.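 Where inhibition never reached the appropriate level, the endpoint shown equals the highest concentration tested. Otherwise, values were interpolated linearly from a five-concentration, 48-hour dose response in 96-well plates. TGI: concentration producing complete growth inhibition.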

For `C=CCCC(=O)C(=[N+]=[N-])C(=O)CCC(=O)c1ccccc1`, the TGI in the assay on OVCAR-8 ovarian, in the assay on DU-145 prostate, in the assay on HS 578T breast, with RPMI-8226 leukemia, in the assay on OVCAR-5 ovarian and in the assay on ACHN renal was over 10 µM in each case. In addition, the TGI in the assay on K-562 leukemia, in the assay on IGROV1 ovarian, in the assay on SF-295 CNS, with MALME-3M melanoma, with MOLT-4 leukemia and with UO-31 renal was over 10 µM in each case. Besides, the TGI in the assay on MCF7 breast and in the assay on A498 renal was over 10 µM in each case.
Consider `N#Cc1c(-c2ccccc2)cc(Nc2ccc(Cl)cc2)n2c1nc1ccccc12`, for which the TGI is over 65.5 µM in the assay with KM12 colon; over 57 µM in the assay with OVCAR-8 ovarian; over 100 µM with DU-145 prostate; 20.2 µM in the assay on HS 578T breast; over 63.3 µM in the assay on RPMI-8226 leukemia; over 94.7 µM in the assay on CCRF-CEM leukemia. In addition, the TGI with OVCAR-5 ovarian is over 50.9 µM; in the assay on ACHN renal, over 100 µM; in the assay with K-562 leukemia it was 8.21 µM; in the assay on NCI-H522 lung, 11.6 µM; in the assay on IGROV1 ovarian, over 100 µM; with HCT-116 colon, over 31.7 µM. Also, the TGI in the assay on SF-295 CNS was over 33.3 µM; in the assay on MALME-3M melanoma it was over 100 µM; in the assay on MOLT-4 leukemia, 9.5 µM; in the assay on UO-31 renal it was over 100 µM; in the assay on MCF7 breast, over 76.3 µM; with A498 renal it was over 100 µM.
With `COc1ccc2oc(C(=O)N3CC(CCl)c4ccc(N)cc43)cc2c1` (stereo not given), the TGI in the assay on KM12 colon worked out at 1.45 µM; in the assay with OVCAR-8 ovarian it was 1.51 µM; with HL-60(TB) leukemia it was 15.6 µM; in the assay on DU-145 prostate, 1.62 µM; with HS 578T breast, 3.53 µM; in the assay with CCRF-CEM leukemia, 9.17 µM. Further, the TGI is over 41 µM in the assay with OVCAR-5 ovarian; over 63.4 µM in the assay on K-562 leukemia; 0.0828 µM with NCI-H522 lung; 0.782 µM with IGROV1 ovarian; 0.576 µM in the assay with HCT-116 colon; over 100 µM in the assay on SF-295 CNS. The TGI with MOLT-4 leukemia is 5.44 µM; in the assay on UO-31 renal, 0.617 µM; with MCF7 breast, 3.02 µM; in the assay with A498 renal it was 0.865 µM.
As for `COc1ccc2c(c1OC)C(=O)O[C@@H]2[C@H]1c2c(cc3c(c2OC)OCO3)CCN1C`, the TGI is over 100 µM in the assay on KM12 colon; over 100 µM in the assay on OVCAR-8 ovarian; over 100 µM in the assay with DU-145 prostate; 67.4 µM with HS 578T breast; over 100 µM in the assay on RPMI-8226 leukemia; over 100 µM in the assay with CCRF-CEM leukemia. Moreover, the TGI in the assay with OVCAR-5 ovarian, in the assay on ACHN renal, in the assay with K-562 leukemia, with NCI-H522 lung, in the assay on IGROV1 ovarian and in the assay on HCT-116 colon was over 100 µM each time. The TGI is over 100 µM with SF-295 CNS; 79.3 µM with MALME-3M melanoma; over 100 µM in the assay with MOLT-4 leukemia; over 100 µM with UO-31 renal; over 100 µM in the assay with MCF7 breast; over 100 µM with A498 renal.
In the case of `O=[N+]([O-])C(C(Cl)=C(Cl)Cl)=C(n1cncn1)n1cncn1`, the TGI in the assay with KM12 colon was over 100 µM; in the assay with OVCAR-8 ovarian it was 44.2 µM; in the assay on DU-145 prostate it was 31.6 µM; in the assay on HS 578T breast, over 64.1 µM; with RPMI-8226 leukemia, 51.5 µM; in the assay on CCRF-CEM leukemia, 22 µM. Besides, the TGI in the assay on OVCAR-5 ovarian was 22.9 µM; with ACHN renal it was 37.5 µM; in the assay with K-562 leukemia, over 100 µM; with NCI-H522 lung it was 28.7 µM; in the assay with IGROV1 ovarian, 39.7 µM; in the assay with HCT-116 colon, 31.9 µM. Also, the TGI in the assay with SF-295 CNS was over 100 µM; in the assay with MALME-3M melanoma, 31.2 µM; in the assay on MOLT-4 leukemia it was over 100 µM; in the assay with UO-31 renal it was 34.9 µM; in the assay with MCF7 breast, over 100 µM; with A498 renal, over 100 µM.
In the case of `COC(=O)C1(O)C(c2ccccc2)NC2(C)CCCC21` (stereo not given), the TGI in the assay with KM12 colon, in the assay with OVCAR-8 ovarian, with HL-60(TB) leukemia, in the assay with DU-145 prostate, in the assay on HS 578T breast and in the assay on CCRF-CEM leukemia was over 100 µM each time. The TGI in the assay with ACHN renal, in the assay with NCI-H522 lung, in the assay with IGROV1 ovarian, in the assay on HCT-116 colon, with SF-295 CNS and in the assay on MALME-3M melanoma was over 100 µM in each case. The TGI in the assay on MOLT-4 leukemia, in the assay with UO-31 renal, in the assay on MCF7 breast and in the assay with A498 renal was over 100 µM each time.
As to `O=c1c2c3c(sc2nc2n1N=CN(c1ccc(F)cc1)C2)CCCC3`, the TGI with KM12 colon, in the assay with OVCAR-8 ovarian, in the assay on DU-145 prostate, in the assay on HS 578T breast, in the assay with RPMI-8226 leukemia and with CCRF-CEM leukemia was over 100 µM throughout. The TGI with OVCAR-5 ovarian, in the assay on ACHN renal, in the assay with K-562 leukemia, in the assay on NCI-H522 lung, in the assay with IGROV1 ovarian and in the assay with HCT-116 colon was over 100 µM in each case. In addition, the TGI in the assay with SF-295 CNS, in the assay on MALME-3M melanoma, with MOLT-4 leukemia, in the assay on UO-31 renal, in the assay with MCF7 breast and in the assay with A498 renal was over 100 µM in each case.
For the compound `O=c1[nH]nc(-c2ccc(F)cc2)cc1-c1ccccc1`, the TGI in the assay on KM12 colon, in the assay on OVCAR-8 ovarian, in the assay on HL-60(TB) leukemia, in the assay on DU-145 prostate, in the assay on HS 578T breast and with RPMI-8226 leukemia was over 100 µM throughout. For the same compound, the TGI in the assay on CCRF-CEM leukemia, in the assay on OVCAR-5 ovarian, in the assay with ACHN renal, in the assay on K-562 leukemia, with IGROV1 ovarian and in the assay on HCT-116 colon was over 100 µM in each case. In addition, the TGI with SF-295 CNS, with MALME-3M melanoma, with MOLT-4 leukemia, in the assay on MCF7 breast and in the assay with A498 renal was over 100 µM each time.
In the case of `CC(=O)NC1(C)C(C)C2CC1C(C)C2(C)C` (stereo not given), the TGI in the assay with KM12 colon, in the assay with OVCAR-8 ovarian, with HL-60(TB) leukemia, in the assay with DU-145 prostate, with HS 578T breast and in the assay with CCRF-CEM leukemia was over 100 µM in each case. For the same compound, the TGI in the assay on OVCAR-5 ovarian, in the assay on ACHN renal, with K-562 leukemia, with NCI-H522 lung, in the assay with IGROV1 ovarian and in the assay with HCT-116 colon was over 100 µM in each case. Besides, the TGI in the assay on SF-295 CNS, with MALME-3M melanoma, in the assay with MOLT-4 leukemia, with UO-31 renal, with MCF7 breast and in the assay on A498 renal was over 100 µM throughout.
Take `Cc1cn(C2OC(CO)C(O)C2F)c(=O)[nH]c1=O` (stereo not given): the TGI in the assay on KM12 colon, in the assay with OVCAR-8 ovarian, in the assay on HL-60(TB) leukemia, in the assay on DU-145 prostate, with HS 578T breast and with CCRF-CEM leukemia was over 100 µM throughout. The TGI with OVCAR-5 ovarian, in the assay on ACHN renal, in the assay on K-562 leukemia, in the assay on NCI-H522 lung, with IGROV1 ovarian and in the assay on HCT-116 colon was over 100 µM throughout. Besides, the TGI in the assay on SF-295 CNS, in the assay with MALME-3M melanoma, in the assay on MOLT-4 leukemia, with UO-31 renal, in the assay on MCF7 breast and with A498 renal was over 100 µM throughout.
Take `O=c1[nH]c(=O)n([C@@H]2O[C@H](CO)[C@@H](O)[C@@H]2F)cc1I`: the TGI in the assay on KM12 colon is over 100 µM; in the assay with OVCAR-8 ovarian, over 100 µM; in the assay on HL-60(TB) leukemia, over 100 µM; in the assay on DU-145 prostate it was over 100 µM; in the assay on HS 578T breast it was over 100 µM; in the assay with CCRF-CEM leukemia, 66.8 µM. The TGI in the assay with OVCAR-5 ovarian, with ACHN renal, with K-562 leukemia, with NCI-H522 lung, in the assay on IGROV1 ovarian and with HCT-116 colon was over 100 µM throughout. Moreover, the TGI in the assay on SF-295 CNS, in the assay on MALME-3M melanoma, with MOLT-4 leukemia, in the assay on UO-31 renal, with MCF7 breast and with A498 renal was over 100 µM each time.
Consider `O=P1(Cc2ccccc2)c2ccccc2-c2ccccc21`, for which the TGI with KM12 colon was 10.3 µM; in the assay with OVCAR-8 ovarian, 36.7 µM; in the assay with DU-145 prostate, over 100 µM; with HS 578T breast, over 72 µM; in the assay with RPMI-8226 leukemia, 4.61 µM; with CCRF-CEM leukemia, over 100 µM. The TGI is 54.7 µM in the assay on OVCAR-5 ovarian; 52.1 µM in the assay on ACHN renal; over 100 µM in the assay with K-562 leukemia; 14.1 µM in the assay on NCI-H522 lung; 19.3 µM in the assay with IGROV1 ovarian; 50.9 µM in the assay with HCT-116 colon. Also, the TGI with SF-295 CNS was 40.5 µM; in the assay on MALME-3M melanoma, 12.7 µM; in the assay with MOLT-4 leukemia, 30.5 µM; with UO-31 renal, 69.2 µM; in the assay with MCF7 breast it was over 39.3 µM; in the assay with A498 renal it was 38.1 µM.
Turning to `O=C(NC1(C(=O)O)CCCC1)c1ccccc1`, the TGI in the assay on KM12 colon, in the assay on OVCAR-8 ovarian, in the assay on HL-60(TB) leukemia, in the assay with DU-145 prostate, in the assay on HS 578T breast and in the assay on RPMI-8226 leukemia was over 100 µM each time. Besides, the TGI in the assay with CCRF-CEM leukemia, with OVCAR-5 ovarian, in the assay on ACHN renal, in the assay on K-562 leukemia, with NCI-H522 lung and in the assay on IGROV1 ovarian was over 100 µM each time. The TGI in the assay with HCT-116 colon, in the assay with SF-295 CNS, in the assay on MOLT-4 leukemia, in the assay with UO-31 renal, in the assay with MCF7 breast and in the assay with A498 renal was over 100 µM in each case.
